# Measurements reported in patent US11203577B2, “Sulfonyl-structure-containing triazinone derivatives, their preparation methods and their uses in insect killing and/or bacterium killing” (Nankai University, priority 2017, dated 2021).
# Where two headings read alike, the source gives them in different places.
# Tests used:
# [1] = test system: Cercospora brown spot of peanut; assay: In vitro fungicidal activity, PDA colony diameter; assay type: cell-based; conditions: 96 h, read-out: Fungicidal activity (%) Cercospora brown spot of peanut
# Rice bakanae disease = assay: In vitro fungicidal activity, PDA colony diameter; assay type: cell-based; conditions: read-out: Fungicidal activity (%) Rice bakanae disease
# Cucumber fusarium wilt = assay: In vitro fungicidal activity, PDA colony diameter; assay type: cell-based; conditions: 96 h, read-out: Fungicidal activity (%) Cucumber fusarium wilt
# Wheat sheath blight = assay: In vitro fungicidal activity, PDA colony diameter; assay type: cell-based; conditions: read-out: Fungicidal activity (%) Wheat sheath blight
# Cotton bollworms = assay: Test of insecticidal activity against cotton bollworms (pesticide mixed into feedstuff); conditions: read-out: Mortalities (%) Cotton bollworms
# Method: Method of testing against cotton bollworms: the pesticide is mixed into the feedstuff, i.e., 3 mL prepared solution is added into about 27 g freshly prepared feedstuff; thus, required concentration is obtained by diluting by 10 times.
# [2] = test system: Corn southern leaf blight; assay: In vitro fungicidal activity, PDA colony diameter; assay type: cell-based; conditions: read-out: Fungicidal activity (%) Corn southern leaf blight
# Watermelon anthracnose = assay: In vitro fungicidal activity, PDA colony diameter; assay type: cell-based; conditions: read-out: Fungicidal activity (%) Watermelon anthracnose
# Wheat head blight = assay: whole plant or invertebrate; assay type: cell-based; conditions: Triticum aestivum, read-out: Fungicidal activity (%) Wheat head blight
# Sclerotinia rot of colza = assay: In vitro fungicidal activity, PDA colony diameter; assay type: cell-based; conditions: 96 h, read-out: Fungicidal activity (%) Sclerotinia rot of colza
# [3] = test system: mosquito larvae (Culer pipiens pallens); assay: Test of insecticidal activity against mosquito larvae (checked after 24 h); conditions: 24 h, read-out: Mortalities (%) against mosquito larvae
# Method: Method of testing against mosquito larvae: the tested mosquito larvae are Culer pipiens pallens, a normal colony fed indoor. About 5 mg compound to be tested is weighed and loaded into a penicillin vial, 5 mL acetone (or an appropriate solvent) is added into the vial, and the vial is oscillated to dissolve the compound; thus, 1,000 ppm mother liquid is obtained. 1 mL mother liquid is weighed and added into a 100 mL beaker filled with 89 mL water, 10 mosquito larvae in the early stage of the 4th instar together with 10 mL feeding solution are poured into the beaker; thus, the concentration of the pesticide solution is 10 ppm (the pesticide solutions with other concentrations are attained by diluting the mother liquid by corresponding times). […] Water solution that contains 0.5 mL test solvent is used as a blank sample.
# Potato late blight = assay: microbe, parasite or virus in culture; assay type: cell-based; conditions: Phytophthora infestans, 96 h, read-out: Fungicidal activity (%) Potato late blight
# Tomato early blight = assay: In vitro fungicidal activity, PDA colony diameter; assay type: cell-based, Alternaria solani; conditions: read-out: Fungicidal activity (%) Tomato early blight
# [4] = test system: bean aphides (Aphis laburni Kaltenbach); assay: Test of insecticidal activity against aphides (leaf immersion, checked after 96 h); conditions: 96 h
# Apple ring rot = assay: In vitro fungicidal activity, PDA colony diameter; assay type: cell-based; conditions: inhibition of colony diameter
# Outline: (§1)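 Mycelial plugs cut from the edge of 7-day PDA colonies placed on PDA containing 50 mg/kg compound or on compound-free PDA, grown 4 days. Colony diameters measured; percent inhibition calculated against untreated control.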
# [5] = test system: Capsicum phytophthora blight; assay: In vitro fungicidal activity, PDA colony diameter; assay type: cell-based; conditions: 96 h
# Outline: as §1
# Maize borers = assay: Test of insecticidal activity against maize borers (leaf immersion); conditions: read-out: Mortalities (%) Maize borers
# Rice sheath blight = assay: In vitro fungicidal activity, PDA colony diameter; assay type: cell-based; conditions: read-out: Fungicidal activity (%) Rice sheath blight
# Armyworms = assay: Test of insecticidal activity against armyworms (leaf immersion); conditions: 600 mg/kg, 3-4 days
# [6] = Aphis, read-out: Mortalities (%) against aphides
# [7] = 50 mg/kg, inhibition of colony diameter
smiles,measurement,setting,value
"CC1=NNC(=O)N(N(S(=O)(=O)c2ccc([N+](=O)[O-])cc2)S(=O)(=O)c2ccc([N+](=O)[O-])cc2)C1 [Ib-7, N-(6-methyl-3-oxo-2,3-dihydro-1,2,4-triazin-4(5H)-yl)-4-nitro-N-(4-nitrobenzenesulfonyl)-benzenesulfonamide]",inhibition of growth at 50 mg/kg,[1],21.1%
same,inhibition at 50 mg/kg,Rice bakanae disease,44.4%
same,inhibition of growth at 50 mg/kg,Cucumber fusarium wilt,5%
same,inhibition at 50 mg/kg,Wheat sheath blight,59.1%
same,mortality at 600 mg/kg,Cotton bollworms,40%
same,inhibition at 50 mg/kg,[2],12.5%
same,inhibition at 50 mg/kg,Watermelon anthracnose,20.8%
same,inhibition at 50 mg/kg,Wheat head blight,23.3%
same,inhibition of growth at 50 mg/kg,Sclerotinia rot of colza,30%
same,mortality at 10 mg/kg,[3],60%
same,inhibition of growth at 50 mg/kg,Potato late blight,25.9%
same,inhibition at 50 mg/kg,Tomato early blight,23.8%
same,mortality at 10 mg/kg,[4]; [6],25%
same,mortality at 100 mg/kg,[4]; [6],85%
same,mortality at 600 mg/kg,[4]; [6],100%
same,inhibition at 50 mg/kg,Apple ring rot,0%
same,inhibition of growth at 50 mg/kg,[5],36.7%
same,mortality at 600 mg/kg,Maize borers,15%
same,inhibition at 50 mg/kg,Rice sheath blight,27%
same,Mortalities (%) Armyworms,Armyworms,20%
"CC(=O)Nc1ccc(S(=O)(=O)N(N2CC(C)=NNC2=O)S(=O)(=O)c2ccc(NC(C)=O)cc2)cc1 [Ib-8, 4-acetamido-N-(6-methyl-3-oxo-2,3-dihydro-1,2,4-triazin-4(5H)-yl)-N-(4-acetamidobenzenesulfonyl)-benzenesulfonamide]",inhibition of growth at 50 mg/kg,[1]; [7],15.8%
same,inhibition at 50 mg/kg,Rice bakanae disease; [7],22.2%
same,inhibition of growth at 50 mg/kg,Cucumber fusarium wilt; [7],0%
same,inhibition at 50 mg/kg,Wheat sheath blight; [7],45.5%
same,mortality at 600 mg/kg,Cotton bollworms,15%
same,inhibition at 50 mg/kg,[2]; [7],16.7%
same,inhibition at 50 mg/kg,Watermelon anthracnose; [7],12.5%
same,inhibition at 50 mg/kg,Wheat head blight,0%
same,inhibition of growth at 50 mg/kg,Sclerotinia rot of colza; [7],33.3%
same,mortality at 10 mg/kg,[3],30%
same,inhibition of growth at 50 mg/kg,Potato late blight,29.6%
same,inhibition at 50 mg/kg,Tomato early blight; [7],23.8%
same,mortality at 100 mg/kg,[4]; [6],50%
same,mortality at 600 mg/kg,[4]; [6],90%
same,inhibition at 50 mg/kg,Apple ring rot,27.6%
same,inhibition of growth at 50 mg/kg,[5],20.4%
same,mortality at 600 mg/kg,Maize borers,15%
same,inhibition at 50 mg/kg,Rice sheath blight; [7],27%
same,Mortalities (%) Armyworms,Armyworms,20%
"CC1=NNC(=O)N(N(S(=O)(=O)c2cccnc2)S(=O)(=O)c2cccnc2)C1 [Ib-9, N-(6-methyl-3-oxo-2,3-dihydro-1,2,4-triazin-4(5H)-yl)-N-(pyrid-3-yl-sulfonyl)pyridyl-3-sulfonamide]",inhibition of growth at 50 mg/kg,[1]; [7],19.2%
same,inhibition at 50 mg/kg,Rice bakanae disease; [7],0%
same,inhibition of growth at 50 mg/kg,Cucumber fusarium wilt; [7],7.7%
same,inhibition at 50 mg/kg,Wheat sheath blight; [7],15.1%
same,mortality at 600 mg/kg,Cotton bollworms,5%
same,inhibition at 50 mg/kg,[2]; [7],5.6%
same,inhibition at 50 mg/kg,Watermelon anthracnose; [7],3.1%
same,inhibition at 50 mg/kg,Wheat head blight,21.2%
same,inhibition of growth at 50 mg/kg,Sclerotinia rot of colza; [7],12.5%
same,mortality at 10 mg/kg,[3],10%
same,inhibition of growth at 50 mg/kg,Potato late blight,14.3%
same,inhibition at 50 mg/kg,Tomato early blight; [7],25%
same,mortality at 10 mg/kg,[4]; [6],20%
same,mortality at 100 mg/kg,[4]; [6],80%
same,mortality at 600 mg/kg,[4]; [6],95%
same,inhibition at 50 mg/kg,Apple ring rot,21.4%
same,inhibition of growth at 50 mg/kg,[5],11.5%
same,mortality at 600 mg/kg,Maize borers,10%
same,inhibition at 50 mg/kg,Rice sheath blight; [7],26.8%
same,Mortalities (%) Armyworms,Armyworms,15%
"CC1=NNC(=O)N(/N=C/c2cccnc2)C1 [Pymetrozine, reference compound]",inhibition of growth at 50 mg/kg,[1]; [7],15.8%
same,inhibition at 50 mg/kg,Rice bakanae disease; [7],33.3%
same,inhibition of growth at 50 mg/kg,Cucumber fusarium wilt; [7],5%
same,inhibition at 50 mg/kg,Wheat sheath blight; [7],63.6%
same,mortality at 600 mg/kg,Cotton bollworms,20%
same,inhibition at 50 mg/kg,[2]; [7],16.7%
same,inhibition at 50 mg/kg,Watermelon anthracnose; [7],16.7%
same,inhibition at 50 mg/kg,Wheat head blight,13.3%
same,inhibition of growth at 50 mg/kg,Sclerotinia rot of colza; [7],31.7%
same,mortality at 5 mg/kg,[3],40%
same,mortality at 10 mg/kg,[3],100%
same,inhibition of growth at 50 mg/kg,Potato late blight,22.2%
same,inhibition at 50 mg/kg,Tomato early blight; [7],23.8%
same,Mortalities (%) against aphides,[4]; 2.5 mg/kg,no insecticidal activity
same,mortality at 2.5 mg/kg,[4]; [6],0%
same,mortality at 5 mg/kg,[4]; [6],30%
same,mortality at 10 mg/kg,[4]; [6],90%
same,mortality at 100 mg/kg,[4]; [6],100%
same,mortality at 600 mg/kg,[4]; [6],100%
same,inhibition at 50 mg/kg,Apple ring rot,27.6%
same,inhibition of growth at 50 mg/kg,[5],36.7%
same,mortality at 600 mg/kg,Maize borers,35%
same,inhibition at 50 mg/kg,Rice sheath blight; [7],19%
same,Mortalities (%) Armyworms,Armyworms,50%
